Laboratory results published in patent publication US12344595B2, “2-amino-n-phenyl-nicotinamides as NAV1.8 inhibitors” (Merck Sharp & Dohme LLC, priority 2018, dated 2025).

Target: human Nav1.8 (Homo sapiens (Human), UniProt Q9Y5Y9)
Test: Nav1.8 Qube automated patch-clamp assay
Assay type: cell-based
Settings: Nav1.8 Qube Assay; human Nav1.8 channels stably expressed in HEK 293 cells
Procedure: Qube® Assay Experimental Procedure
Compounds were tested on human Nav1.8 and Nav1.5 channels stably expressed in human embryo kidney (HEK) 293 cells. Sodium current measurements on Qube® were conducted as follows: automated 384-well patch-clamp assays on the Qube® platform (Sophion Biosciences) were used to measure the inhibition of sodium flow through human Nav1.8 and Nav1.5 channels. Whole-cell voltage-clamp recordings were performed in QChips® (Sophion Biosciences) at room temperature. Nav1.8 current measurements on Qube® were obtained as follows: Nav1.8 currents were elicited with a 10 second 1 Hertz (Hz) pulse train from a holding potential of −90 millivolts (mV), delivered to the cells once per minute in the control condition (DMSO only) and after compound addition. The 1 hertz pulse train stimulation consisted of ten test pulses to 10 millivolt (mV) for 20 milliseconds (ms), each of which was followed by a 980 millisecond repolarization to −67 millivolts. At the end of the 10 second pulse train stimulation, a 5 second hyperpolarization step to −100 millivolt (mV) was used to recover Nav1.8 from fast inactivation. The peak currents elicited by the 1st and 10th test pulses were used to determine IC50 values for resting inhibition and inactivated state inhibition. Nav1.5 current measurements on Qube® were obtained as follows: Nav1.5 currents were elicited with a 20 second 3 Hertz pulse train in the control condition (DMSO only) and after compound addition. The pulse train consisted of sixty 20 millisecond test pulses to 0 millivolt from a holding potential of −80 millivolt (mV). The average peak currents elicited by the last 3 test pulses were used to determine IC50 values for Nav1.5 inhibition.
The following buffers were used for the Qube® recordings: External buffer for Nav1.8 Qube® recording: 150 NaCl, 2 CaCl2, 5 KCl, 1 Mg Cl2, 10 HEPES, 12 Dextrose; External buffer for Qube® Nav1.5 recording: 120 N-Methyl-D-Glucamine, 40 NaCl, 1 KCl, 2.7 CaCl2, 5 HEPES, 0.5 MgCl2; and Internal buffer for Qube® recording: 120 CsF, 30 CsCl, 10 EGTA, 5 HEPES, 5 NaF, 2 MgCl2.
For all Qube® experiments offline analysis was used to determine percent inhibition as a function of drug concentration. IC50 values were determined by fitting to the Hill equation.

human Nav1.8, sequence (Q9Y5Y9 whole entry): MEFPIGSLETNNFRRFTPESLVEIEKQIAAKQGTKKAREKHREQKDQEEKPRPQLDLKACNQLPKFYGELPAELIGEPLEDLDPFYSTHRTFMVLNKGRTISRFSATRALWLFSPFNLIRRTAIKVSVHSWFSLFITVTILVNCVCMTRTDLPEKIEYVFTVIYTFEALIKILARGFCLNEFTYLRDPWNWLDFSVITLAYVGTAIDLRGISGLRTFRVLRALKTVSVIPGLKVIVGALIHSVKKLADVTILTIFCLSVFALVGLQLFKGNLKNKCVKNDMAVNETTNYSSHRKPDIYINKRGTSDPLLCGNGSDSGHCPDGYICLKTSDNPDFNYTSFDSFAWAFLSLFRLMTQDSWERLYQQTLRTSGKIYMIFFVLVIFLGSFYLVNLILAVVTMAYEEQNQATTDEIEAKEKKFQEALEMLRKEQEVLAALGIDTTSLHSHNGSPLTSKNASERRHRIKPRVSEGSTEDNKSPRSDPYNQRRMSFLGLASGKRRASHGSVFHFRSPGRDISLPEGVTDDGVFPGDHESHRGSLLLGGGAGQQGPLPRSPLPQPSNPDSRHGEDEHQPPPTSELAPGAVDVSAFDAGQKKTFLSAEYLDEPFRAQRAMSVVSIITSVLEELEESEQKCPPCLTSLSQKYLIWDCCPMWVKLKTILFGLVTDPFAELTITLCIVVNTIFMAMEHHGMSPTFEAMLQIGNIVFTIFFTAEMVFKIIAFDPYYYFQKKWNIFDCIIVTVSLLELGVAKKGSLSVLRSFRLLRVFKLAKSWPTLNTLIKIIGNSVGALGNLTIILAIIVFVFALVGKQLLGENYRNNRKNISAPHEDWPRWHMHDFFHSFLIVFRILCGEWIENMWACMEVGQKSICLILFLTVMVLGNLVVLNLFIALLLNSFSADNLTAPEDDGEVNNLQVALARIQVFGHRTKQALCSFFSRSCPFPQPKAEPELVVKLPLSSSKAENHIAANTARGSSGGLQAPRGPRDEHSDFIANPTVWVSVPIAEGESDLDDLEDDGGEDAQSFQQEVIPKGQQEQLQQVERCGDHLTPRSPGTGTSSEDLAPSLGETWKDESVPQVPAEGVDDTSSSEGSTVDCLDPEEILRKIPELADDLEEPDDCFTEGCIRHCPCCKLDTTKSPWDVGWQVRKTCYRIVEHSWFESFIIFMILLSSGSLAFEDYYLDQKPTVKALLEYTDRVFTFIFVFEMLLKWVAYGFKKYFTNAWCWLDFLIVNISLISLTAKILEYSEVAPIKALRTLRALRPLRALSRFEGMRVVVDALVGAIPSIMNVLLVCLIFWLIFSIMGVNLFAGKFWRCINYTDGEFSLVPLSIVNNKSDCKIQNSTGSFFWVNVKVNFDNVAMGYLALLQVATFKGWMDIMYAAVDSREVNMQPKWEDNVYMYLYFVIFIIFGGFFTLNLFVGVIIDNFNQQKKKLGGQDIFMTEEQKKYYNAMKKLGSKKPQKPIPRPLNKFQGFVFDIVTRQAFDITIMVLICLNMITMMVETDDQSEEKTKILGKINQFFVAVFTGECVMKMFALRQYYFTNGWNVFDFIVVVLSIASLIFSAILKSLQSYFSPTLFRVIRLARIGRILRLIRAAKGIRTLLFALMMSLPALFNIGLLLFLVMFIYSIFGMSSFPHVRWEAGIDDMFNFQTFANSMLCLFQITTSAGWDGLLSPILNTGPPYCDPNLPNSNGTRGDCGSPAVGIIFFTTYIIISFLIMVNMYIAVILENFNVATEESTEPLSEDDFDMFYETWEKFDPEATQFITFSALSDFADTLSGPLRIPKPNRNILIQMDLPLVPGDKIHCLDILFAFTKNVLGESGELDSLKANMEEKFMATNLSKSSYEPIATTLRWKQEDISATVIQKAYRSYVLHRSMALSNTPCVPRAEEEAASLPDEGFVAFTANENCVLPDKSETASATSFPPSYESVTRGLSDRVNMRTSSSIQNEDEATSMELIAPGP

| IC50 [nM] | Compound |
| --- | --- |
| 113 | NS(=O)(=O)c1cccc(NC(=O)c2cc(C(F)(F)F)cnc2N2CC3CCC3(C(F)(F)F)C2)c1 (single isomer, unassigned) [Example 131, N-(3-sulfamoylphenyl)-5-(trifluoromethyl)-2-[(1S,5S or 1R,5R)-1-(trifluoromethyl)-3-azabicyclo[3.2.0]heptan-3-yl]pyridine-3-carboxamide] |
| 37 | NS(=O)(=O)c1cccc(NC(=O)c2cc(C(F)(F)F)cnc2N2CC3CC(F)(F)C3C2)c1 (single isomer, unassigned) [Example 135, 2-[(1S,5R or 1R,5S)-6,6-difluoro-3-azabicyclo[3.2.0]heptan-3-yl]-N-(3-sulfamoyl-phenyl)-5-(trifluoro-methyl)pyridine-3-carboxamide] |
| 87 | NS(=O)(=O)c1cccc(NC(=O)c2cc(C(F)(F)F)cnc2N2CC3CC(F)(F)C3C2)c1 (single isomer, unassigned) [Example 136, 2-[(1R,5S or 1S,5R)-6,6-difluoro-3-azabicyclo[3.2.0]heptan-3-yl]-N-(3-sulfamoyl-phenyl)-5-(trifluoromethyl)-pyridine-3-carboxamide] |
| 82 | NS(=O)(=O)c1cccc(NC(=O)c2cc(C(F)(F)F)cnc2N2CC3CC2CC3(F)F)c1 (single isomer, unassigned) [Example 137, 2-[(1S,4S or 1R,4R)-5,5-difluoro-2-azabicyclo-[2.2.1]heptan-2-yl]-N-(3-sulfamoylphenyl)-5-(trifluoromethyl)-pyridine-3-carboxamide] |
| 881 | NS(=O)(=O)c1cccc(NC(=O)c2cc(C(F)(F)F)cnc2N2CC3CC2CC3(F)F)c1 (single isomer, unassigned) [Example 138, 2-[(1R,4R or 1S,4S)-5,5-difluoro-2-azabicyclo-[2.2.1]heptan-2-yl]-N-(3-sulfamoylphenyl)-5-(trifluoromethyl)-pyridine-3-carboxamide] |
| 351 | CC1CN(c2ncc(C(F)(F)F)cc2C(=O)Nc2cccc(S(N)(=O)=O)c2)CC(C)O1 (single isomer, unassigned) [Example 149, 2-[(2R,6S or 2S,6R)-2,6-dimethylmorpholin-4-yl]-N-(3-sulfamoylphenyl)-5-(trifluoromethyl) pyridine-3-carboxamide] |
| 414 | CC1CN(c2ncc(C(F)(F)F)cc2C(=O)Nc2cccc(S(N)(=O)=O)c2)CC(C)O1 (single isomer, unassigned) [Example 150, 2-[(2S,6S or 2R,6R)-2,6-dimethylmorpholin-4-yl]-N-(3-sulfamoylphenyl)-5-(trifluoromethyl) pyridine-3-carboxamide] |
| 47 | NS(=O)(=O)c1cccc(NC(=O)c2cc(C(F)(F)F)cnc2N2CCC(F)(F)CC2)c1 [Example 1, 2-(4,4-difluoropiperidin-1-yl)-N-(3-sulfamoylphenyl)-5-(trifluoromethyl)nicotinamide] |
| 0.7 | Cc1nc(N2CCCCCC2)c(C(=O)Nc2cccc(S(N)(=O)=O)c2)c(C)c1Cl [Example 2, 2-(azepan-1-yl)-5-chloro-4,6-dimethyl-N-(3-sulfamoylphenyl)nicotinamide] |
| 7.6 | Cc1c(F)c(Cl)nc(N2CCCCCC2)c1C(=O)Nc1cccc(S(N)(=O)=O)c1 [Example 3, 2-(azepan-1-yl)-6-chloro-5-fluoro-4-methyl-N-(3-sulfamoyl-phenyl)pyridine-3-carboxamide] |
| 14 | Cc1cc(C)c(C(=O)Nc2cccc(S(N)(=O)=O)c2)c(N2CCCCCC2)n1 [Example 4, 2-(azepan-1-yl)-4,6-dimethyl-N-(3-sulfamoyl-phenyl)pyridine-3-carboxamide] |
| 8320 | NS(=O)(=O)c1cccc(NC(=O)c2cc(F)cnc2N2CCCCC2)c1 [Example 6, 5-fluoro-2-(1-piperidyl)-N-(3-sulfamoyl-phenyl)pyridine-3-carboxamide] |
| 3.5 | Cc1nc(N2CCCCCC2)c(C(=O)Nc2cccc(S(C)(=O)=O)c2)c(C)c1Cl [Example 7, 2-(azepan-1-yl)-5-chloro-4,6-dimethyl-N-(3-methylsulfonyl-phenyl)pyridine-3-carboxamide] |
| 5.8 | Cc1cc(Cl)nc(N2CCCC(F)(F)CC2)c1C(=O)Nc1cccc(S(C)(=O)=O)c1 [Example 8, 6-chloro-2-(4,4-difluoroazepan-1-yl)-4-methyl-N-(3-methyl-sulfonylphenyl)pyridine-3-carboxamide] |
| 7 | CS(=O)(=O)c1cccc(NC(=O)c2ccc(Cl)nc2N2CCCC(F)(F)CC2)c1 [Example 9, 6-chloro-2-(4,4-difluoroazepan-1-yl)-N-(3-methylsulfonyl-phenyl)pyridine-3-carboxamide] |
| 9.2 | Cc1ccc(C(=O)Nc2cccc(S(C)(=O)=O)c2)c(N2CCCC(F)(F)CC2)n1 [Example 10, 2-(4,4-difluoroazepan-1-yl)-6-methyl-N-(3-methylsulfonylphenyl) pyridine-3-carboxamide] |
| 31 | COc1ccc(C(=O)Nc2cccc(S(C)(=O)=O)c2)c(N2CCCC(F)(F)CC2)n1 [Example 11, 2-(4,4-difluoroazepan-1-yl)-6-methoxy-N-(3-methylsulfonylphenyl) pyridine-3-carboxamide] |
| 54 | Cc1nc(N2CCCCC2)c(C(=O)Nc2cccc(S(C)(=O)=O)c2)c(C)c1Cl [Example 12, 5-chloro-4,6-dimethyl-N-(3-methylsulfonyl-phenyl)-2-(1-piperidyl)pyridine-3-carboxamide] |
| 13 | Cc1nc(N2CCC3(CC2)CC3)c(C(=O)Nc2cccc(C(N)=O)c2)c(C)c1Cl [Example 13, 2-(6-azaspiro[2.5]-octan-6-yl)-N-(3-carbamoyl-phenyl)-5-chloro-4,6-dimethyl-pyridine-3-carboxamide] |
| 18 | NC(=O)c1cccc(NC(=O)c2ccc(Cl)nc2N2CCCC(F)(F)CC2)c1 [Example 14, N-(3-carbamoyl-phenyl)-6-chloro-2-(4,4-difluoroazepan-1-yl)pyridine-3-carboxamide] |
| 19 | NC(=O)c1cccc(NC(=O)c2cc(Cl)cnc2N2CCCC(F)(F)CC2)c1 [Example 15, N-(3-carbamoyl-phenyl)-5-chloro-2-(4,4-difluoroazepan-1-yl)pyridine-3-carboxamide] |
| 24 | Cc1nc(N2CCC(F)(F)CC2)c(C(=O)Nc2cccc(C(N)=O)c2)c(C)c1Cl [Example 16, N-(3-carbamoyl-phenyl)-5-chloro-2-(4,4-difluoro-1-piperidyl)-4,6-dimethyl-pyridine-3-carboxamide] |
| 29 | Cc1cc(Cl)nc(N2CCCC(F)(F)CC2)c1C(=O)Nc1cccc(C(N)=O)c1 [Example 17, N-(3-carbamoyl-phenyl)-6-chloro-2-(4,4-difluoroazepan-1-yl)-4-methyl-pyridine-3-carboxamide] |
| 52 | COc1ccc(C(=O)Nc2cccc(C(N)=O)c2)c(N2CCCC(F)(F)CC2)n1 [Example 18, N-(3-carbamoyl-phenyl)-2-(4,4-difluoroazepan-1-yl)-6-methoxy-pyridine-3-carboxamide] |
| 295 | Cc1nc(N2CCCCC2)c(C(=O)Nc2cccc(C(N)=O)c2)c(C)c1Cl [Example 19, N-(3-carbamoyl-phenyl)-5-chloro-4,6-dimethyl-2-(1-piperidyl)pyridine-3-carboxamide] |
| 74 | Cc1nc(N2CCC(F)(F)CC2)c(C(=O)Nc2cccc(C#N)c2)c(C)c1Cl [Example 20, 5-chloro-N-(3-cyanophenyl)-2-(4,4-difluoro-1-piperidyl)-4,6-dimethyl-pyridine-3-carboxamide] |
